Experimental data from ChEMBL document CHEMBL1130885, “A potent and selective inhibition of parainfluenza 1 (Sendai) virus by new 6-oxiranyl-, 6-methyloxiranyluracils, and 4(3H)-pyrimidinone derivatives” (1998).

Tests used:
[1] = test system: MDCK; test: Minimum toxic concentration required to cause microscopically detectable alteration of confluent madin Darby canine kidney (MDCK)cell morphology; assay type: functional, Canis lupus familiaris
[2] = test system: MDCK; test: Antiviral activity against parainfluenza 1 (sendai) virus was determined in madin Darby canine kidney (MDCK)i cells; assay type: functional, Canis lupus familiaris; details: read-out: ED50 (the source's name)
[3] = species on record: Mus musculus; test: Inhibitory concentration required to inhibit proliferation in mouse myeloma cells; assay type: functional

CCCOc1nc(CC2(c3ccccc3)CO2)cc(=O)n1C (configuration not stated)
MTC [1]: 330 µM
EC50 ([2]; Canis lupus familiaris, MDCK): 16.6 µM
CC50 ([3]; Mus musculus): > 30 µM

Cn1c(C2OC2c2ccccc2)cc(=O)n(C)c1=O (stereo in doubt; 6c)
MTC [1]: 380 µM
EC50 [2]: 193 µM
CC50 [3]: > 380 µM

Cn1c(CC2(c3ccccc3)CO2)cc(=O)n(C)c1=O (configuration not stated)
MTC [1]: 0.37 µM
EC50 ([2]; Canis lupus familiaris, MDCK): 0.18 µM
CC50 ([3]; Mus musculus): 3.7 µM

CCCOc1nc(CC23CCCCC2O3)cc(=O)n1C (configuration not stated)
MTC [1]: >352 µM
EC50 ([2]; Canis lupus familiaris, MDCK): 176 µM
CC50 ([3]; Mus musculus): > 352 µM

Cn1c(CC23CCCCC2O3)cc(=O)n(C)c1=O (configuration not stated)
MTC [1]: >2 µM
EC50 ([2]; Canis lupus familiaris, MDCK): > 2 µM
CC50 ([3]; Mus musculus): 40 µM

Cn1c(OC2CCCCC2)nc(CC2(c3ccccc3)CO2)cc1=O (configuration not stated)
MTC [1]: 294 µM
EC50 ([2]; Canis lupus familiaris, MDCK): 147 µM
CC50 ([3]; Mus musculus): > 294 µM

C[C@H]1O[C@@]1(C)Cc1cc(=O)n(C)c(=O)n1C
MTC [1]: >2 µM
EC50 ([2]; Canis lupus familiaris, MDCK): > 2 µM
CC50 ([3]; Mus musculus): 89 µM

Cn1c(CC2(C)CO2)cc(=O)n(C)c1=O (configuration not stated)
MTC [1]: 0.48 µM
EC50 ([2]; Canis lupus familiaris, MDCK): 0.24 µM
CC50 ([3]; Mus musculus): 4 µM

Cn1c(C2OC2(C)c2ccccc2)cc(=O)n(C)c1=O (configuration not stated)
MTC [1]: >0.81 µM
EC50 ([2]; Canis lupus familiaris, MDCK): 0.47 µM
CC50 ([3]; Mus musculus): 7.3 µM

Cn1c(CC23CCCC2O3)cc(=O)n(C)c1=O (configuration not stated)
MTC [1]: >0.84 µM
EC50 ([2]; Canis lupus familiaris, MDCK): 0.42 µM
CC50 ([3]; Mus musculus): 8.4 µM

Cn1c(C2OC2c2ccccc2)cc(=O)n(C)c1=O (stereo in doubt; 6b)
MTC [1]: >0.8 µM
EC50 [2]: 0.38 µM
CC50 [3]: 7.7 µM

Cn1c(CC2(C(C)(C)C)CO2)cc(=O)n(C)c1=O (configuration not stated)
MTC [1]: >0.79 µM
EC50 ([2]; Canis lupus familiaris, MDCK): 0.59 µM
CC50 ([3]; Mus musculus): 7.9 µM

CC1OC1(C)Cc1cc(=O)n(C)c(OC2CCCCC2)n1 (configuration not stated)
MTC [1]: 342 µM
EC50 ([2]; Canis lupus familiaris, MDCK): 171 µM
CC50 ([3]; Mus musculus): > 342 µM

C[C@@H]1O[C@@]1(C)Cc1cc(=O)n(C)c(=O)n1C
MTC [1]: >2 µM
EC50 ([2]; Canis lupus familiaris, MDCK): > 2 µM
CC50 ([3]; Mus musculus): 89 µM
